Measured values: patent US20210283107A1, “Methods to Expand the Spectrum of Gram-Positive Antibiotics” (NORTH CAROLINA STATE UNIVERSITY, priority 2016, published 2021)
“And” between values parts separate entries of the source, which are not always exact repeats. Equal values may be shown once.

How the values were obtained:
Type in all cases: cell-based, Acinetobacter baumannii
[1] = test system: AB 5075; assay: Backlight assay for membrane permeability; details: AB5075
Description: The assay was initially performed at 10, 20 and 30 μM with compounds 1 and 4 (Table 16). […] When the concentration is lowered to 20 μM, the percent of membrane disrupted also decreases to 78% and 83% respectively. When further decreasing the concentration to 10 μM, the membrane disruption decreases to 39 and 44% respectively. Due to the similar structure and lack of potentiation activity, compound 25 was screened at 10, 20 and 30 μM to compare membrane permeability with that of active compounds. The percent disruption was less than seen with compounds 1 and 4 being 53, 54 and 60% respectively.

[2] = test system: A. baumannii strain 3560; assay: Potentiation of clarithromycin and vancomycin against clinical isolate; details: with compound at 30 μM
Description: (§1) As previously stated, A. baumannii 5075 was chosen for these studies due to its virulence and multidrug resistance, but to further analyze the activity of our lead compounds, 23 A. baumannii clinical isolates obtained from Walter Reed Army Institute of Research (WRAIR) were tested.
(§2) Day Cultures (6 h) were subcultured to 5×10^5 CFU/mL in cation adjusted Mueller-Hinton broth (CAMHB). […] One milliliter of the resulting solution was aliquoted into a separate culture tube and was dosed with antibiotic so that the resulting concentration was the highest desirable concentration to be tested. Bacteria treated with antibiotic alone were used as a control. Row one of a 96-well plate was filled with 200 μL of the antibiotic/compound solution, and the remaining rows were filled with 100 μL of the remaining 4 mL bacterial subculture. The wells in row one were mixed five times before 100 μL was transferred to the following row (row two). Row two was then mixed five times, and 100 μL was transferred to row three. This process was repeated until the second to last row had been reached. The last row is left unexposed to antibiotic in order to serve as a negative control. The antibiotic only treated bacteria was plated by aliquoting 200 μL of the treated bacteria into row one and filling the remaining rows with untreated bacteria from the original bacteria subculture. The rows were mixed in the same way as described above. Plates were covered with Glad Press n'Seal and were incubated under stationary conditions at 37° C. for 16 hours. MIC values were recorded as the lowest concentration at which no bacterial growth was observed. Fold reductions were determined by comparison of the compound treated wells with the antibiotic only treated control wells.

[3] = test system: A. baumannii strain 3785; assay: as above; details: with compound at 30 μM
Description: as §1, §2

[4] = test system: A. baumannii strain 3806; assay: as above; details: with compound at 30 μM
Description: as §1, §2

[5] = test system: A. baumannii strain 3927; assay: as above; details: with compound at 30 μM
Description: as §1, §2

[6] = test system: A. baumannii strain 4025; assay: as above; details: with compound at 30 μM
Description: as §1, §2

[7] = test system: A. baumannii strain 4026; assay: as above; details: with compound at 30 μM
Description: as §1, §2

[8] = test system: A. baumannii strain 4027; assay: as above; details: with compound at 30 μM
Description: as §1, §2

[9] = test system: A. baumannii strain 4052; assay: as above; details: with compound at 30 μM
Description: as §1, §2

[10] = test system: A. baumannii strain 4269; assay: as above; details: with compound at 30 μM
Description: as §1, §2

[11] = test system: A. baumannii strain 4448; assay: as above; details: with compound at 30 μM
Description: as §1, §2

[12] = test system: A. baumannii strain 4456; assay: as above; details: with compound at 30 μM
Description: as §1, §2

[13] = test system: A. baumannii strain 4490; assay: as above; details: with compound at 30 μM
Description: as §1, §2

[14] = test system: A. baumannii strain 4498; assay: as above; details: with compound at 30 μM
Description: as §1, §2

[15] = test system: A. baumannii strain 4795; assay: as above; details: with compound at 30 μM
Description: as §1, §2

[16] = test system: A. baumannii strain 4857; assay: as above; details: with compound at 30 μM
Description: as §1, §2

[17] = test system: A. baumannii strain 4878; assay: as above; details: with compound at 30 μM
Description: as §1, §2

[18] = test system: A. baumannii strain 4957; assay: as above; details: with compound at 30 μM
Description: as §1, §2

[19] = test system: A. baumannii strain 4991; assay: as above; details: with compound at 30 μM
Description: as §1, §2

[20] = test system: A. baumannii strain 5001; assay: as above; details: with compound at 30 μM
Description: as §1, §2

[21] = test system: A. baumannii strain 5197; assay: as above; details: with compound at 30 μM
Description: as §1, §2

[22] = test system: A. baumannii strain 5256; assay: as above; details: with compound at 30 μM
Description: as §1, §2

[23] = test system: A. baumannii strain 5711; assay: as above; details: with compound at 30 μM
Description: as §1, §2

[24] = test system: A. baumannii strain 8967; assay: as above; details: with compound at 30 μM
Description: as §1, §2

Structure (SMILES): Nc1nc(-c2ccc(NC(=O)c3cc(Br)cc(Br)c3)cc2)c[nH]1 [Compound 4]
- Disrupted bacterial membrane (%) ([1]; compound at 10 μM): 44%
- Disrupted bacterial membrane (%) ([1]; compound at 20 μM): 83% and 83.2%
- Disrupted bacterial membrane (%) ([1]; compound at 30 μM): 87.4%
- Clarithromycin MIC [2]: 0.5 µg/mL
- Vancomycin MIC [2]: 32 µg/mL
- Clarithromycin MIC [3]: 0.5 µg/mL
- Vancomycin MIC [3]: 128 µg/mL
- Clarithromycin MIC [4]: ≤0.125 µg/mL
- Vancomycin MIC [4]: 32 µg/mL
- Clarithromycin MIC [5]: 0.5 µg/mL
- Vancomycin MIC [5]: 64 µg/mL
- Clarithromycin MIC [6]: 0.25 µg/mL
- Vancomycin MIC [6]: 16 µg/mL
- Clarithromycin MIC [7]: 1 µg/mL
- Vancomycin MIC [7]: 16 µg/mL
- Clarithromycin MIC [8]: 0.25 µg/mL
- Vancomycin MIC [8]: 32 µg/mL
- Clarithromycin MIC [9]: ≤0.25 µg/mL
- Vancomycin MIC [9]: 64 µg/mL
- Clarithromycin MIC [10]: ≤0.25 µg/mL
- Vancomycin MIC [10]: 64 µg/mL
- Clarithromycin MIC [11]: ≤0.25 µg/mL
- Vancomycin MIC [11]: 4 µg/mL
- Clarithromycin MIC [12]: ≤0.25 µg/mL
- Vancomycin MIC [12]: 64 µg/mL
- Clarithromycin MIC [13]: ≤0.25 µg/mL
- Vancomycin MIC [13]: 8 µg/mL
- Clarithromycin MIC [14]: ≤0.25 µg/mL
- Vancomycin MIC [14]: 16 µg/mL
- Clarithromycin MIC [15]: 0.5 µg/mL
- Vancomycin MIC [15]: 4 µg/mL
- Clarithromycin MIC [16]: 0.5 µg/mL
- Vancomycin MIC (μg/mL) [16]: Toxic
- Clarithromycin MIC [17]: 1 µg/mL
- Vancomycin MIC [17]: 1 µg/mL
- Clarithromycin MIC [18]: 0.5 µg/mL
- Vancomycin MIC [18]: 8 µg/mL
- Clarithromycin MIC [19]: 0.5 µg/mL
- Vancomycin MIC [19]: 32 µg/mL
- Clarithromycin MIC [20]: 0.5 µg/mL
- Vancomycin MIC [20]: 1 µg/mL
- Clarithromycin MIC [21]: 0.5 µg/mL
- Vancomycin MIC [21]: 8 µg/mL
- Clarithromycin MIC [22]: 0.25 µg/mL
- Vancomycin MIC [22]: 8 µg/mL
- Clarithromycin MIC [23]: 0.5 µg/mL
- Vancomycin MIC [23]: 64 µg/mL
- Clarithromycin MIC [24]: 0.25 µg/mL
- Vancomycin MIC [24]: 8 µg/mL

Structure (SMILES): Nc1nc(-c2ccc(NC(=O)c3cc(Cl)cc(Cl)c3)cc2)c[nH]1 [Compound 1]
- Disrupted bacterial membrane (%) ([1]; compound at 10 μM): 39% and 38.8%
- Disrupted bacterial membrane (%) ([1]; compound at 20 μM): 78%
- Clarithromycin MIC [2]: 0.5 µg/mL
- Vancomycin MIC [2]: 0.5 µg/mL
- Clarithromycin MIC [3]: 0.5 µg/mL
- Vancomycin MIC [3]: 1 µg/mL
- Clarithromycin MIC [4]: 0.25 µg/mL
- Vancomycin MIC [4]: 2 µg/mL
- Clarithromycin MIC [5]: 0.5 µg/mL
- Vancomycin MIC [5]: 8 µg/mL
- Clarithromycin MIC [6]: 0.25 µg/mL
- Vancomycin MIC [6]: 2 µg/mL
- Clarithromycin MIC [7]: 0.5 µg/mL
- Vancomycin MIC [7]: 2 µg/mL
- Clarithromycin MIC [8]: ≤0.25 µg/mL
- Vancomycin MIC [8]: 1 µg/mL
- Clarithromycin MIC [9]: ≤0.25 µg/mL
- Vancomycin MIC [9]: 4 µg/mL
- Clarithromycin MIC [10]: ≤0.25 µg/mL
- Vancomycin MIC [10]: 2 µg/mL
- Clarithromycin MIC [11]: ≤0.25 µg/mL
- Vancomycin MIC [11]: 1 µg/mL
- Clarithromycin MIC [12]: 0.5 µg/mL
- Vancomycin MIC [12]: 16 µg/mL
- Clarithromycin MIC [13]: 0.5 µg/mL
- Vancomycin MIC [13]: 1 µg/mL
- Clarithromycin MIC [14]: ≤0.25 µg/mL
- Vancomycin MIC [14]: 1 µg/mL
- Clarithromycin MIC [15]: 0.5 µg/mL
- Vancomycin MIC [15]: 4 µg/mL
- Clarithromycin MIC [16]: 0.5 µg/mL
- Vancomycin MIC (μg/mL) [16]: Toxic
- Clarithromycin MIC [17]: 0.5 µg/mL
- Vancomycin MIC [17]: 2 µg/mL
- Clarithromycin MIC [18]: 0.5 µg/mL
- Vancomycin MIC [18]: 8 µg/mL
- Clarithromycin MIC [19]: 0.5 µg/mL
- Vancomycin MIC [19]: 32 µg/mL
- Clarithromycin MIC [20]: 0.5 µg/mL
- Vancomycin MIC [20]: 2 µg/mL
- Clarithromycin MIC [21]: 0.5 µg/mL
- Vancomycin MIC [21]: 16 µg/mL
- Clarithromycin MIC [22]: 0.25 µg/mL
- Vancomycin MIC [22]: 2 µg/mL
- Clarithromycin MIC [23]: 0.5 µg/mL
- Vancomycin MIC [23]: 8 µg/mL
- Clarithromycin MIC [24]: 0.25 µg/mL
- Vancomycin MIC [24]: 4 µg/mL
